From patent publication US5468734A, “Prophylactic and remedial preparation for diseases attendant on hyperglycemia, and wholesome food” (Godo Shusei Co., Ltd., priority 1992, dated 1995)
Where two headings read alike, the source gives them in different places.

Columns and labels:
[1] = biological target: T1, sucrase (carbohydrase derived from rabbit small intestine mucous membrane) (Oryctolagus cuniculus, UniProt P07768); assay: Action to inhibit the hydrolytic activity of homogenate prepared from rabbit small intestine mucous membrane: sucrase inhibition; assay type: biochemical
T1 construct: suspended again in a 10 mM potassium phosphate buffer (pH: 7.0), thereby obtaining a crude enzyme suspension; from tissue; host or cells: rabbit small intestine (title: mucous membrane), homogenate, 60,000×g precipitate
T1 sequence (P07768 1008-1827 limits assumed): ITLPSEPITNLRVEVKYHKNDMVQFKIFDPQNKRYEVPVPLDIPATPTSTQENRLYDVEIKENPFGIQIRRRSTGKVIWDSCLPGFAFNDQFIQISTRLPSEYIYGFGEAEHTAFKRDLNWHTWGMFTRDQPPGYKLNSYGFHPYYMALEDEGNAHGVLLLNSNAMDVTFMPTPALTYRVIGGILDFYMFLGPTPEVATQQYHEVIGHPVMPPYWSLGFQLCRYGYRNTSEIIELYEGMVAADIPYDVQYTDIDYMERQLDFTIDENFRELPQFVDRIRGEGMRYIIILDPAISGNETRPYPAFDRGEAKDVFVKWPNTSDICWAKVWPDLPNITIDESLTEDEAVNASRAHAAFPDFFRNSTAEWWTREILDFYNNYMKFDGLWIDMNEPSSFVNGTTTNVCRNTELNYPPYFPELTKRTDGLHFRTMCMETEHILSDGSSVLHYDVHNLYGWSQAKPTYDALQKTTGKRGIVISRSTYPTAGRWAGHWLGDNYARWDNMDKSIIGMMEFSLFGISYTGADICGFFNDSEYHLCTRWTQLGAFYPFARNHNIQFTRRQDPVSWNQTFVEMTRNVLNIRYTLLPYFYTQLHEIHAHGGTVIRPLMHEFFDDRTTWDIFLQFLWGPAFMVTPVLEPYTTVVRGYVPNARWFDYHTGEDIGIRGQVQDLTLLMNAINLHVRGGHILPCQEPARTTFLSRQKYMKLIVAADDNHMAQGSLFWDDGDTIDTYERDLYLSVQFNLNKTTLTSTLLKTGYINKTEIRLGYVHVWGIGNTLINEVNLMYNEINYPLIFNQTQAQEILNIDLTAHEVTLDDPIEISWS
T1 sequence (P07768 2-1007 partner limits assumed): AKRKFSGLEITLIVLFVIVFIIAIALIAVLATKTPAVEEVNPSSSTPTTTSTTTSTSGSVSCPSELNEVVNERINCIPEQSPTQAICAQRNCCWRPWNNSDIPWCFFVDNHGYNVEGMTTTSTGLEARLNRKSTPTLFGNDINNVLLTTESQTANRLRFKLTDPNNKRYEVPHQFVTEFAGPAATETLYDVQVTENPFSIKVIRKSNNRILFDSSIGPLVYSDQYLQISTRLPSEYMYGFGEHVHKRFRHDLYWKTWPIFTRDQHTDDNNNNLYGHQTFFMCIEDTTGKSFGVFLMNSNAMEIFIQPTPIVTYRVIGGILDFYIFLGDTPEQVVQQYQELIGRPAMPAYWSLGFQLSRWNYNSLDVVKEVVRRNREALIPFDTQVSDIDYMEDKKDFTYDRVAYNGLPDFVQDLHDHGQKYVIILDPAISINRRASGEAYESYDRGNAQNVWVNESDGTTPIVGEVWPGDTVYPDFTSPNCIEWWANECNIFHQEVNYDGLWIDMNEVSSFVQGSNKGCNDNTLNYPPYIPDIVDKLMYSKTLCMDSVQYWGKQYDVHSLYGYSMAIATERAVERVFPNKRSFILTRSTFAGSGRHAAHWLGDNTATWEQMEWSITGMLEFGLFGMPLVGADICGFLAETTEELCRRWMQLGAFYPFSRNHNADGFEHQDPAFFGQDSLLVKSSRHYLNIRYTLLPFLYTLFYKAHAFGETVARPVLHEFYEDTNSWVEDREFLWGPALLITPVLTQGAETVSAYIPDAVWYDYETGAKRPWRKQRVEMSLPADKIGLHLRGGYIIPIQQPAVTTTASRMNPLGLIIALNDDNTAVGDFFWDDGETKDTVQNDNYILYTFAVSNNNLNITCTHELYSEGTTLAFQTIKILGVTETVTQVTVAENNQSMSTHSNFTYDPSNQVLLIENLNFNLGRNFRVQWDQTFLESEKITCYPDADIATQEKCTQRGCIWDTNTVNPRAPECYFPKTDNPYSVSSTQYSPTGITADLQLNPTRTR
Procedure: (§1) (Action to inhibit the hydrolytic activity of homogenate prepared from rabbit small intestine mucous membrane to carbohydrate)
(§2) A native kind of white rabbits (weight: 3.0-3.5 kg) were sacrificed by exsanguination to take out their small intestines.
(§3) After freezing and thawing the small intestines thus taken out, they were homogenized in a 5 mM EDTA buffer (pH: 7.0) and subjected to centrifugation for 60 minutes at 60,000×g. Precipitate thus formed was collected and suspended again in a 10 mM potassium phosphate buffer (pH: 7.0), thereby obtaining a crude enzyme suspension.
(§4) Sucrose (20 mM) and maltose (20 mM) were used as substrates.
(§5) Each reaction mixture was formulated so as to contain 350 microliters of a 100 mM maleate buffer (pH: 6.8), 100 microliters of a substrate solution, 50 microliters of the crude enzyme suspension and 50 microliters of a test solution. Substances to be tested were separately dissolved in a maleate buffer (pH: 6.8) before use.
(§6) Respective reactions were conducted for 15 minutes at 37° C.

[2] = test system: maltase (carbohydrase derived from rabbit small intestine mucous membrane); assay: Action to inhibit the hydrolytic activity of homogenate prepared from rabbit small intestine mucous membrane: maltase inhibition; assay type: biochemical; settings: for Maltase inhibition rate: substrate maltose 20 mM, pH 6.8, 37° C., 15 minutes
Procedure: as §1, §2, §3, §4, §5, §6

rise in blood sugar = assay: Action to depress the rise in blood sugar after sucrose loading to mice; assay type: in vivo, ICR male mice; settings: for Rise in blood sugar / action to depress the rise in blood sugar due to sucrose loading (in words): sucrose 1 g/kg; for Rise in blood sugar: dose 100 mg/kg oral, average ± standard error; for action to depress the rise in blood sugar due to sucrose loading (in words): orally 25, 50 and 100 mg/kg (L-arabinose, D-xylose) or 100 mg/kg (others); for action to depress the rise in blood sugar for sucrose or starch loading (in words): summary statement
Excerpt: (Action to depress the rise in blood sugar after carbohydrate loading)
ICR male mice (weight 30-35 g) were used in proportions of 5 mice per group.
After causing the mice to fast, sucrose or starch was orally administered in a proportion of 1 g/kg to the mice of each group, and at the same time substances to be tested were orally given to mice of their corresponding groups.
Blood was collected from the retroorbital sinus of each mouse before carbohydrate loading and upon elapsed times of 30 minutes, 60 minutes and 120 minutes after the loading to determine the concentration of glucose in the blood plasma by the glucose oxidase method.

[3] = 0.25 h, 200 mg/dl, substrate sucrose 20 mM, pH 6.8, 37° C., 15 minutes, read-out: Sucrase inhibition rate
[4] = 0.25 h, pH 6.8, read-out: Sucrase inhibition rate
[5] = 0.25 h, 50 mg/dl, substrate sucrose 20 mM, pH 6.8, 37° C., 15 minutes, read-out: Sucrase inhibition rate
[6] = 0.25 h, 100 mg/dl, substrate sucrose 20 mM, pH 6.8, 37° C., 15 minutes, read-out: Sucrase inhibition rate

OC1OC[C@@H](O[C@@H]2OC[C@@H](O[C@@H]3OC[C@@H](O[C@@H]4OC[C@@H](O[C@@H]5OC[C@@H](O[C@@H]6OC[C@@H](O)[C@H](O)[C@H]6O)[C@H](O)[C@H]5O)[C@H](O)[C@H]4O)[C@H](O)[C@H]3O)[C@H](O)[C@H]2O)[C@H](O)[C@H]1O (stereo partly drawn) [reference compound]
inhibition at 2000 µg/mL [1, 3]: -7.9% | Maltase inhibition rate ([2]; 200 mg/dl): -5.1%

OC[C@H]1O[C@@H](O[C@H]2[C@H](O)[C@H](O)[C@H](O[C@H]3[C@H](O)[C@H](O)C(O)O[C@@H]3CO)O[C@@H]2CO)[C@@H](O)[C@@H](O)[C@@H]1O (stereo partly drawn) [reference compound]
inhibition at 2000 µg/mL [1, 3]: 2% | Maltase inhibition rate ([2]; 200 mg/dl): 1.3%

O=C(CO)[C@@H](O)[C@H](O)[C@@H](O)CO [L-Sorbose, L-sorbose, reference compound]
sucrase-inhibiting action (in words) [1]: no or little inhibiting action | inhibition at 2000 µg/mL [1, 3]: 5.1% | maltase-inhibiting action (in words) [2]: no or little inhibiting action | Maltase inhibition rate ([2]; 200 mg/dl): 7.5%

O=C[C@H](O)[C@@H](O)[C@@H](O)[C@H](O)CO [D-Galactose, D-galactose, reference compound]
sucrase-inhibiting action (in words) [1]: no or little inhibiting action | inhibition at 500 µg/mL [1, 4]: -0.6% | inhibition at 1000 µg/mL [1, 4]: -0.9% | inhibition at 2000 µg/mL [1, 4]: 6.4% | inhibition at 4000 µg/mL [1, 4]: 20.2% | maltase-inhibiting action (in words) [2]: no or little inhibiting action | Maltase inhibition rate ([2]; 50 mg/dl): -0.8% | Maltase inhibition rate ([2]; 100 mg/dl): 13.9% | Maltase inhibition rate ([2]; 200 mg/dl): 15.3% | Maltase inhibition rate ([2]; 400 mg/dl): 11.8%

O=C[C@@H](O)[C@@H](O)[C@@H](O)[C@H](O)CO [D-Talose, D-talose, reference compound]
sucrase-inhibiting action (in words) [1]: no or little inhibiting action | inhibition at 2000 µg/mL [1, 4]: 5.4% | maltase-inhibiting action (in words) [2]: no or little inhibiting action | Maltase inhibition rate ([2]; 200 mg/dl): 5.3%

OC[C@H]1O[C@@H](O[C@H]2[C@H](O)[C@H](O)C(O)O[C@@H]2CO)[C@@H](O)[C@@H](O)[C@@H]1O (stereo partly drawn) [reference compound]
inhibition at 2000 µg/mL [1, 3]: 0.9% | Maltase inhibition rate ([2]; 200 mg/dl): 0.6%

OC1OC[C@@H](O[C@@H]2OC[C@@H](O[C@@H]3OC[C@@H](O[C@@H]4OC[C@@H](O[C@@H]5OC[C@@H](O)[C@H](O)[C@H]5O)[C@H](O)[C@H]4O)[C@H](O)[C@H]3O)[C@H](O)[C@H]2O)[C@H](O)[C@H]1O (stereo partly drawn) [reference compound]
inhibition at 2000 µg/mL [1, 3]: -0.5% | Maltase inhibition rate ([2]; 200 mg/dl): 1.5%

O=CC[C@@H](O)[C@@H](O)[C@H](O)CO [2-Deoxy-D-galactose, 2-deoxy-D-galactose]
Rise in blood sugar (rise in blood sugar; after 30 min.): 61.1 Δmg/dl | Rise in blood sugar (rise in blood sugar; after 60 min.): 50.8 Δmg/dl | Rise in blood sugar (rise in blood sugar; after 120 min.): 26.2 Δmg/dl | action to depress the rise in blood sugar due to sucrose loading (in words) (rise in blood sugar): significantly depressed | action to depress the rise in blood sugar for sucrose or starch loading (in words) (rise in blood sugar): effective action to depress the rise in blood sugar | sucrase-inhibiting action (in words) [1]: strong sucrase-inhibiting action | inhibition at 250 µg/mL ([1]; 0.25 h, 25 mg/dl, substrate sucrose 20 mM, pH 6.8, 37° C., 15 minutes, read-out: Sucrase inhibition rate): 13.7% | inhibition at 500 µg/mL [1, 5]: 15.5% | inhibition at 1000 µg/mL [1, 6]: 21.6% | inhibition at 2000 µg/mL [1, 3]: 34.8% | maltase-inhibiting action (in words) [2]: strong sucrase-inhibiting action and maltase-inhibiting action | Maltase inhibition rate ([2]; 25 mg/dl): 11.2% | Maltase inhibition rate ([2]; 50 mg/dl): 13.4% | Maltase inhibition rate ([2]; 100 mg/dl): 19.3% | Maltase inhibition rate ([2]; 200 mg/dl): 32.8%

OC1OC[C@@H](O[C@@H]2OC[C@@H](O[C@@H]3OC[C@@H](O)[C@H](O)[C@H]3O)[C@H](O)[C@H]2O)[C@H](O)[C@H]1O (stereo partly drawn) [reference compound]
inhibition at 2000 µg/mL [1, 3]: 2.7% | Maltase inhibition rate ([2]; 200 mg/dl): 3.6%

O=C(CO)[C@H](O)[C@H](O)CO [D-Ribulose, D-ribulose]
Rise in blood sugar (rise in blood sugar; after 30 min.): 65.6 Δmg/dl | Rise in blood sugar (rise in blood sugar; after 60 min.): 56.3 Δmg/dl | Rise in blood sugar (rise in blood sugar; after 120 min.): 28.1 Δmg/dl | action to depress the rise in blood sugar due to sucrose loading (in words) (rise in blood sugar): significantly depressed | action to depress the rise in blood sugar for sucrose or starch loading (in words) (rise in blood sugar): effective action to depress the rise in blood sugar | sucrase-inhibiting action (in words) [1]: inhibiting actions second to these | inhibition at 2000 µg/mL [1, 3]: 21.7% | maltase-inhibiting action (in words) [2]: inhibiting actions second to these | Maltase inhibition rate ([2]; 200 mg/dl): 20.1%

O=C[C@@H](O)[C@@H](O)[C@H](O)[C@H](O)CO [D-Mannose, D-mannose, reference compound]
sucrase-inhibiting action (in words) [1]: no or little inhibiting action | inhibition at 500 µg/mL [1, 4]: -0.7% | inhibition at 1000 µg/mL [1, 4]: 12.9% | inhibition at 2000 µg/mL [1, 4]: 19.3% | inhibition at 4000 µg/mL [1, 4]: 27.8% | maltase-inhibiting action (in words) [2]: no or little inhibiting action | Maltase inhibition rate ([2]; 50 mg/dl): 3.2% | Maltase inhibition rate ([2]; 100 mg/dl): 10.6% | Maltase inhibition rate ([2]; 200 mg/dl): 25.1% | Maltase inhibition rate ([2]; 400 mg/dl): 30.4%

O=C(CO)[C@H](O)[C@@H](O)CO [L-Xylulose, L-xylulose, reference compound]
sucrase-inhibiting action (in words) [1]: no or little inhibiting action | inhibition at 2000 µg/mL [1, 3]: 10.8% | maltase-inhibiting action (in words) [2]: no or little inhibiting action | Maltase inhibition rate ([2]; 200 mg/dl): 6.4%

O=C[C@@H](O)[C@H](O)[C@H](O)CO [D-Arabinose, D-arabinose, reference compound]
sucrase-inhibiting action (in words) [1]: no or little inhibiting action | inhibition at 500 µg/mL [1, 5]: 4% | inhibition at 1000 µg/mL [1, 6]: 6.8% | inhibition at 2000 µg/mL [1, 3]: 11.7% | maltase-inhibiting action (in words) [2]: no or little inhibiting action | Maltase inhibition rate ([2]; 200 mg/dl): 7.8%

OC[C@H]1O[C@@H](O[C@H]2[C@H](O)[C@H](O)[C@H](O[C@H]3[C@H](O)[C@H](O)[C@H](O[C@H]4[C@H](O)[C@H](O)[C@H](O[C@H]5[C@H](O)[C@H](O)C(O)O[C@@H]5CO)O[C@@H]4CO)O[C@@H]3CO)O[C@@H]2CO)[C@@H](O)[C@@H](O)[C@@H]1O (stereo partly drawn) [reference compound]
inhibition at 2000 µg/mL [1, 3]: 4% | Maltase inhibition rate ([2]; 200 mg/dl): 3.5%

N[C@H]1C(O)O[C@H](CO)[C@H](O)[C@@H]1O (stereo partly drawn) [D-Galactosamine, D-galactosamine, reference compound]
sucrase-inhibiting action (in words) [1]: no or little inhibiting action | inhibition at 2000 µg/mL [1, 3]: -6.5% | maltase-inhibiting action (in words) [2]: no or little inhibiting action | Maltase inhibition rate ([2]; 200 mg/dl): -4.5%

OC[C@H]1O[C@@H](OC[C@H]2OC(O)[C@H](O)[C@@H](O)[C@@H]2O)[C@H](O)[C@@H](O)[C@@H]1O (stereo partly drawn) [Gentiobiose, reference compound]
inhibition at 2000 µg/mL [1, 3]: -2.4% | Maltase inhibition rate ([2]; 200 mg/dl): 1.9%

OC[C@H]1O[C@@H](O[C@H]2[C@H](O)[C@H](O)[C@H](O[C@H]3[C@H](O)[C@H](O)[C@H](O[C@H]4[C@H](O)[C@H](O)C(O)O[C@@H]4CO)O[C@@H]3CO)O[C@@H]2CO)[C@@H](O)[C@@H](O)[C@@H]1O (stereo partly drawn) [reference compound]
inhibition at 2000 µg/mL [1, 3]: -0.3% | Maltase inhibition rate ([2]; 200 mg/dl): 0.7%

OC1OC[C@@H](O[C@@H]2OC[C@@H](O[C@@H]3OC[C@@H](O[C@@H]4OC[C@@H](O)[C@H](O)[C@H]4O)[C@H](O)[C@H]3O)[C@H](O)[C@H]2O)[C@H](O)[C@H]1O (stereo partly drawn) [reference compound]
inhibition at 2000 µg/mL [1, 3]: 3.5% | Maltase inhibition rate ([2]; 200 mg/dl): 2.0%

O=C[C@H](O)[C@H](O)[C@@H](O)CO [L-Lyxose, L-lyxose, reference compound]
sucrase-inhibiting action (in words) [1]: no or little inhibiting action | inhibition at 2000 µg/mL [1, 3]: -0.2% | maltase-inhibiting action (in words) [2]: no or little inhibiting action | Maltase inhibition rate ([2]; 200 mg/dl): 10.0%

C[C@@H](O)[C@H](O)[C@H](O)[C@@H](O)C=O [D-Fucose, D-fucose, reference compound]
sucrase-inhibiting action (in words) [1]: no or little inhibiting action | inhibition at 2000 µg/mL [1, 3]: 8.7% | maltase-inhibiting action (in words) [2]: no or little inhibiting action | Maltase inhibition rate ([2]; 200 mg/dl): 4.1%

OC[C@H]1O[C@@H](O[C@H]2[C@H](O)[C@@H](O)C(O)O[C@@H]2CO)[C@H](O)[C@@H](O)[C@@H]1O (stereo partly drawn) [Cellobiose, reference compound]
inhibition at 2000 µg/mL [1, 3]: -0.4% | Maltase inhibition rate ([2]; 200 mg/dl): 2.8%

OC1OC[C@@H](O[C@@H]2OC[C@@H](O)[C@H](O)[C@H]2O)[C@H](O)[C@H]1O (stereo partly drawn) [reference compound]
inhibition at 2000 µg/mL [1, 3]: 10.7% | Maltase inhibition rate ([2]; 200 mg/dl): 5.5%
